According to patent publication US5773439A, “Amido-quinoxalinediones, the preparation and use thereof” (BASF Aktiengesellschaft, priority 1994, dated 1998):
pKi: −log10 of the molar value.

Test system: AMPA receptor
Assay: Binding of 3H-AMPA to rat cerebra membranes
Conditions: for activity compared with the substance of Example 56 in EP 572,852 and compound 16: 3H-AMPA binding; for pKi: displacement of 3H-AMPA, isolated membrane material from rat cerebra
Experimental: The pharmacological activity of the compounds I was investigated in isolated membrane material from rat cerebra. For this purpose, the membrane material was treated in the presence of the compounds according to the invention with the radiolabeled substances ^3 H-2-amino-3-hydroxy-5-methyl-4-isoxazolepropionic acid (^3 H-AMPA) [^3 H]-glycine or [^3 H]-kainate, these binding to specific receptors (AMPA, NMDA or kainate receptors). Subsequently, the radioactivity of the treated membranes was measured by scintillation counting. It was possible to determine from the bound radioactivity the amounts of bound ^3 H-AMPA, [^3 H]-glycine or [^3 H]-kainate, or in each case the amounts of these radiolabeled substances displaced. The dissociation constant KI (I=inhibitor) derived from this is a measure of the displacing action of the agent according to the invention and was found by iterative non-linear regression analysis using the statistical analysis system (SAS) on an IBM computer, similar to the "Ligand" program of P. J. Munson and D. Rodbard (Analytical Biochem. 107, 220 (1980), Ligand: Versatile Computerized Approach for Characterization of Ligand Binding Systems).
1. Binding of ^3 H-2-amino-3-hydroxy-5-methyl-4-isoxazolepropionic acid (^3 H-AMPA)
To prepare the membrane material, freshly removed rat cerebra were homogenized together with 15 times the volume of a buffer solution A comprising 30 mM α,α,α-tris(hydroxymethyl)methylamine hydrochloride (TRIS-HCl) and 0.5 mM ethylenediaminetetraacetic acid (EDTA), pH 7.4, using an Ultra-Turrax®. The suspension was centrifuged at 48,000 g for 20 min. After removal of the supernatant liquid, the protein-containing membrane material contained in the sediment was washed three times by suspension in buffer solution A and subsequent centrifugation at 48,000 g for 20 minutes each time. The membrane material was then suspended in 15 times the volume of buffer solution A and incubated at 37° C. for 30 min. The protein material was subsequently washed twice by centrifugation and suspension and stored at -70° C. until used.
For the binding assay, the protein material was thawed at 37° C. and washed twice by centrifugation at 48,000 g (20 min) and subsequent suspension in a buffer solution B comprising 50 mM TRIS-HCl, 0.1M potassium thiocyanate and 2.5 mM calcium chloride, pH 7.1. Subsequently, 0.25 mg of membrane material, 0.1 μCi of ^3 H-AMPA (60 Ci/mmol) and compound I were dissolved in 1 ml of buffer solution B and incubated on ice for 60 min. The incubated solution was filtered through a CF/B filter (from Whatman) which had previously been treated with a 0.5% strength aqueous solution of polyethyleneimine for at least 2 hours. The membrane residue was subsequently washed with 5 ml of cold buffer solution B in order to separate bound and free ^3 H-AMPA from one another. After measurement of the radioactivity of the bound ^3 H-AMPA in the membrane material by scintillation counting, the KI was determined by regression analysis of the displacement plots.

SMILES	activity compared with the substance of Example 56 in EP 572,852 and compound 16 (comparison in words)	pKi	activity compared with 1-carbamoyl-7-pyrrolylquinoxalinedione (Example 56 in EP 572,852) (comparison in words, test not named)
O=C(Nn1c(=O)c(=O)[nH]c2cc(C(F)(F)F)ccc21)c1ccccc1 [Example 1, 1-Benzamido-6-trifluoromethylquinoxaline-2,3(1H,4H)-dione]	more active	> 5.00	–
O=C(Nn1c(=O)c(=O)[nH]c2cc(C(F)(F)F)c(-n3cccc3)cc21)c1ccccc1 [Example 29, 1-Benzamido-7-(1-pyrrolyl)-6-trifluoromethylquinoxaline-2,3-(1H,4H)-dione]	more active	> 5.00	distinctly more active
